{
  "source": "patent US11174252B2",
  "about": "“Heterocyclic compounds as kinase inhibitors” (priority 2018, dated 2021)",
  "key": {"FMS kinase": {"biological_target": "FMS kinase (Homo sapiens (Human), UniProt P07333)", "sequence (P07333 20-972)": "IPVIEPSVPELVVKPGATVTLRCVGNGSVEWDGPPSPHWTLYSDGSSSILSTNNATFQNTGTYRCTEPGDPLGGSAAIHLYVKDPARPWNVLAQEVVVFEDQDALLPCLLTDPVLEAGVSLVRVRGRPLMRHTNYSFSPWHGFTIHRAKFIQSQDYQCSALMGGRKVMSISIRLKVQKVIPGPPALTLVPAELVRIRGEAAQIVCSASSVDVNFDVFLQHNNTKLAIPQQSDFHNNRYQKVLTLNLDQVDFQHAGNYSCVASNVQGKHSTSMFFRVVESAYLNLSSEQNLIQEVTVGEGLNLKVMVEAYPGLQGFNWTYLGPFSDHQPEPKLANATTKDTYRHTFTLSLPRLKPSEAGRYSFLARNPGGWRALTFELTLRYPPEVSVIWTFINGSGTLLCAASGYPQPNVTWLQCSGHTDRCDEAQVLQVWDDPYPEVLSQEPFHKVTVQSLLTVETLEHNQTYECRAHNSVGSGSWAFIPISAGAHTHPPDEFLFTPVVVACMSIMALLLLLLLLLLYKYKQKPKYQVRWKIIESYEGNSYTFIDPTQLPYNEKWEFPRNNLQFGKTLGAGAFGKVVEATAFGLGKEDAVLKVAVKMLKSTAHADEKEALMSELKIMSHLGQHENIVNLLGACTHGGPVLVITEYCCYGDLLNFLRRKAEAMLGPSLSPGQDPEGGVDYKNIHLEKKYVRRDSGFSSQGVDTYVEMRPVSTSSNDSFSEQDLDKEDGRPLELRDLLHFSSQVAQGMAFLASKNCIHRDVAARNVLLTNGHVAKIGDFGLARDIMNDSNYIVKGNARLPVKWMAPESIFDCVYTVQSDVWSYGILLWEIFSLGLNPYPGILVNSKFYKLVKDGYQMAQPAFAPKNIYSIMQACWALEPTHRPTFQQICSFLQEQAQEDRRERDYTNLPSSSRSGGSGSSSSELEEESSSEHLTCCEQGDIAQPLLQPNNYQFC", "experiment": "LanthaScreen kinase assay (ATP, fluorescent-PolyGT substrate, TR-FRET)", "type": "biochemical"}, "MCF-7": {"system": "MCF-7", "experiment": "Cancer cell proliferation assay, single agent", "type": "cell-based", "conditions": "Homo sapiens"}, "CDK4": {"biological_target": "CDK4 (Homo sapiens (Human), UniProt P11802)", "sequence (P11802 whole entry)": "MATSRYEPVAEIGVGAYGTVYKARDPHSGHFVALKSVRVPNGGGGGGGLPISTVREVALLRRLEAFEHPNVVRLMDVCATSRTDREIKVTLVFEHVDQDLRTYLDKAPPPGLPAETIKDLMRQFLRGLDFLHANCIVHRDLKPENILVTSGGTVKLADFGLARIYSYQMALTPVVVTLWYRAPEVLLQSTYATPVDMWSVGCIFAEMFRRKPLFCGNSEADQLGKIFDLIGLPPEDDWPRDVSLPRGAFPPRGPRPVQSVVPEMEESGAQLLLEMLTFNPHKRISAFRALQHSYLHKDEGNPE", "sequence (P24385 whole entry partner)": "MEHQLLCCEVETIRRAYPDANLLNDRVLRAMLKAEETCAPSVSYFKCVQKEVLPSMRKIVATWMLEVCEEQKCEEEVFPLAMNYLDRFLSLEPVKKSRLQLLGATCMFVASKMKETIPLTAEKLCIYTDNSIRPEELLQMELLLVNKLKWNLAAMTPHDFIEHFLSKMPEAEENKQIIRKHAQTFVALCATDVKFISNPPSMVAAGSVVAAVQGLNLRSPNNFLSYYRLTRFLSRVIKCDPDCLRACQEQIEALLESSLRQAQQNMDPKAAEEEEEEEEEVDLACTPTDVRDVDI", "experiment": "In vitro kinase inhibition, luminescence (ADP-Glo) with retinoblastoma substrate", "type": "biochemical"}, "[1]": {"conditions": "MCF7, MCF-7 cells, treated for 24-168 hours, read-out: IC50 (nM) MCF-7"}, "[2]": {"conditions": "MCF7, read-out: IC50 (nM) MCF-7"}},
  "note": "Like-named read-outs stand apart in the source and are kept apart here.",
  "data": [
    {"molecule": "CC(C)N1CCOc2c(F)cc(-c3nc(Nc4cc(N5CCNCC5)ccn4)ncc3F)cc21", "note": "[Compound 5, 5-fluoro-4-(8-fluoro-4-isopropyl-3,4-dihydro-2H-benzo[b][1,4]oxazin-6-yl)-N-(4-(piperazin-1-yl)pyridin-2-yl)pyrimidin-2-amine]", "values": [
      {"measurement": "IC50", "setting": "FMS kinase", "value": "> 3630", "unit": "nM"}
    ]},
    {"molecule": "CC(C)N1CCOc2c(F)cc(-c3nc(Nc4ccc(N5CCN(C)CC5)cc4)ncc3F)cc21", "note": "[Compound 6, 5-fluoro-4-(8-fluoro-4-isopropyl-3,4-dihydro-2H-benzo[b][1,4]oxazin-6-yl)-N-(4-(4-methylpiperazin-1-yl)phenyl)pyrimidin-2-amine]", "values": [
      {"measurement": "IC50", "setting": "MCF-7; [1]", "value": 30, "unit": "nM"},
      {"measurement": "IC50", "setting": "FMS kinase", "value": 82, "unit": "nM"}
    ]},
    {"molecule": "CCN1CCN(Cc2ccc(Nc3ncc(F)c(-c4cc(F)c5c(c4)N(C(=O)C4CC4)CCO5)n3)nc2)CC1", "note": "[Compound 8, cyclopropyl(6-(2-((5-((4-ethylpiperazin-1-yl)methyl)pyridin-2-yl)amino)-5-fluoropyrimidin-4-yl)-8-fluoro-2,3-dihydro-4H-benzo[b][1,4]oxazin-4-yl)methanone]", "values": [
      {"measurement": "IC50", "setting": "FMS kinase", "value": "> 5000", "unit": "nM"}
    ]},
    {"molecule": "CC(C)N1CCOc2c(F)cc(-c3nc(Nc4ccc(N5CCNCC5)cc4F)ncc3F)cc21", "note": "[Compound 11, 5-fluoro-N-(2-fluoro-4-(piperazin-1-yl)phenyl)-4-(8-fluoro-4-isopropyl-3,4-dihydro-2H-benzo[b][1,4]oxazin-6-yl)pyrimidin-2-amine]", "values": [
      {"measurement": "IC50", "setting": "MCF-7; [2]", "value": 225, "unit": "nM"},
      {"measurement": "IC50", "setting": "FMS kinase", "value": 250, "unit": "nM"}
    ]},
    {"molecule": "CC(C)N1CCOc2c(F)cc(-c3nc(Nc4ccc5c(c4)CCNC5)ncc3F)cc21", "note": "[Compound 13, N-(5-fluoro-4-(8-fluoro-4-isopropyl-3,4-dihydro-2H-benzo[b][1,4]oxazin-6-yl)pyrimidin-2-yl)-1,2,3,4-tetrahydroisoquinolin-6-amine]", "values": [
      {"measurement": "IC50", "setting": "MCF-7; [2]", "value": 3.8, "unit": "nM"}
    ]},
    {"molecule": "CC(C)N1CCOc2c(F)cc(-c3nc(Nc4ccc(N5CCN(C)CC5)c(F)c4)ncc3F)cc21", "note": "[Compound 14, 5-fluoro-N-(3-fluoro-4-(4-methylpiperazin-1-yl)phenyl)-4-(8-fluoro-4-isopropyl-3,4-dihydro-2H-benzo[b][1,4]oxazin-6-yl) pyrimidin-2-amine]", "values": [
      {"measurement": "IC50", "setting": "MCF-7; [2]", "value": 11, "unit": "nM"},
      {"measurement": "IC50", "setting": "FMS kinase", "value": 49, "unit": "nM"}
    ]},
    {"molecule": "CC(C)N1CCOc2c(F)cc(-c3nc(Nc4cccc5c4CCNC5)ncc3F)cc21", "note": "[Compound 15, N-(5-fluoro-4-(8-fluoro-4-isopropyl-3,4-dihydro-2H-benzo[b][1,4]oxazin-6-yl)pyrimidin-2-yl)-1,2,3,4-tetrahydroisoquinolin-5-amine]", "values": [
      {"measurement": "IC50", "setting": "MCF-7; [2]", "value": 114, "unit": "nM"},
      {"measurement": "IC50", "setting": "FMS kinase", "value": 22, "unit": "nM"}
    ]},
    {"molecule": "CC(C)N1CCOc2c(F)cc(-c3nc(Nc4ccc5c(c4)CNCC5)ncc3F)cc21", "note": "[Compound 16, N-(5-fluoro-4-(8-fluoro-4-isopropyl-3,4-dihydro-2H-benzo[b][1,4]oxazin-6-yl)pyrimidin-2-yl)-1,2,3,4-tetrahydroisoquinolin-7-amine]", "values": [
      {"measurement": "IC50", "setting": "MCF-7; [2]", "value": 3.8, "unit": "nM"},
      {"measurement": "IC50", "setting": "FMS kinase", "value": 2.5, "unit": "nM"}
    ]},
    {"molecule": "CC(C)N1CCN(c2ccc(Nc3ncc(F)c(-c4cc(F)c5c(c4)N(C(C)C)CCO5)n3)cc2F)CC1", "note": "[Compound 17, 5-fluoro-N-(3-fluoro-4-(4-isopropylpiperazin-1-yl)phenyl)-4-(8-fluoro-4-isopropyl-3,4-dihydro-2H-benzo[b][1,4]oxazin-6-yl)pyrimidin-2-amine]", "values": [
      {"measurement": "IC50", "setting": "MCF-7; [2]", "value": 15, "unit": "nM"},
      {"measurement": "IC50", "setting": "FMS kinase", "value": 21, "unit": "nM"},
      {"measurement": "IC50", "setting": "CDK4", "value": 8, "unit": "nM"}
    ]},
    {"molecule": "CC(C)N1CCOc2c(F)cc(-c3nc(Nc4ccc(C5CCNCC5)c(F)c4)ncc3F)cc21", "note": "[Compound 18, 5-fluoro-N-(3-fluoro-4-(piperidin-4-yl)phenyl)-4-(8-fluoro-4-isopropyl-3,4-dihydro-2H-benzo[b][1,4]oxazin-6-yl) pyrimidin-2-amine]", "values": [
      {"measurement": "IC50", "setting": "MCF-7; [2]", "value": "< 10", "unit": "nM"},
      {"measurement": "IC50", "setting": "FMS kinase", "value": 19, "unit": "nM"}
    ]},
    {"molecule": "CC(C)N1CCc2ccc(Nc3ncc(F)c(-c4cc(F)c5c(c4)N(C(C)C)CCO5)n3)cc2C1", "note": "[Compound 19, N-(5-fluoro-4-(8-fluoro-4-isopropyl-3,4-dihydro-2H-benzo[b][1,4]oxazin-6-yl)pyrimidin-2-yl)-2-isopropyl-1,2,3,4-tetrahydroisoquinolin-7-amine]", "values": [
      {"measurement": "IC50", "setting": "MCF-7; [1]", "value": "< 10", "unit": "nM"},
      {"measurement": "IC50", "setting": "FMS kinase", "value": 3, "unit": "nM"}
    ]},
    {"molecule": "CC(C)N1CCc2c(cccc2Nc2ncc(F)c(-c3cc(F)c4c(c3)N(C(C)C)CCO4)n2)C1", "note": "[Compound 20, N-(5-fluoro-4-(8-fluoro-4-isopropyl-3,4-dihydro-2H-benzo[b][1,4]oxazin-6-yl)pyrimidin-2-yl)-2-isopropyl-, 2,3,4-tetrahydroisoquinolin-5-amine]", "values": [
      {"measurement": "IC50", "setting": "MCF-7; [1]", "value": 145, "unit": "nM"},
      {"measurement": "IC50", "setting": "FMS kinase", "value": 17, "unit": "nM"}
    ]},
    {"molecule": "CC(C)N1CCOc2c(F)cc(-c3nc(Nc4ccc(N5CCNCC5)c(C#N)c4)ncc3F)cc21", "note": "[Compound 21, 5-((5-fluoro-4-(8-fluoro-4-isopropyl-3,4-dihydro-2H-benzo[b][1,4]oxazin-6-yl)pyrimidin-2-yl)amino)-2-(piperazin-1-yl) benzonitrile]", "values": [
      {"measurement": "IC50", "setting": "MCF-7; [2]", "value": "< 10", "unit": "nM"},
      {"measurement": "IC50", "setting": "FMS kinase", "value": 163, "unit": "nM"}
    ]},
    {"molecule": "CC(C)N1CCc2cc(Nc3ncc(F)c(-c4cc(F)c5c(c4)N(C(C)C)CCO5)n3)ccc2C1", "note": "[Compound 22, N-(5-fluoro-4-(8-fluoro-4-isopropyl-3,4-dihydro-2H-benzo[b][1,4]oxazin-6-yl)pyrimidin-2-yl)-2-isopropyl-1,2,3,4-tetrahydroisoquinolin-6-amine]", "values": [
      {"measurement": "IC50", "setting": "MCF-7; [1]", "value": "< 10", "unit": "nM"},
      {"measurement": "IC50", "setting": "FMS kinase", "value": 6.5, "unit": "nM"}
    ]},
    {"molecule": "CC(C)N1CCOc2c(F)cc(-c3nc(Nc4ccc(N5CCNCC5)c(F)c4F)ncc3F)cc21", "note": "[Compound 28, N-(2,3-difluoro-4-(piperazin-1-yl)phenyl)-5-fluoro-4-(8-fluoro-4-isopropyl-3,4-dihydro-2H-benzo[b][1,4]oxazin-6-yl)pyrimidin-2-amine]", "values": [
      {"measurement": "IC50", "setting": "MCF-7; [2]", "value": 150, "unit": "nM"},
      {"measurement": "IC50", "setting": "FMS kinase", "value": 123, "unit": "nM"}
    ]},
    {"molecule": "COc1cc(Nc2ncc(F)c(-c3cc(F)c4c(c3)N(C(C)C)CCO4)n2)ccc1N1CCNCC1", "note": "[Compound 29, 5-fluoro-4-(8-fluoro-4-isopropyl-3,4-dihydro-2H-benzo[b][1,4]oxazin-6-yl)-N-(3-methoxy-4-(piperazin-1-yl)phenyl)pyrimidin-2-amine]", "values": [
      {"measurement": "IC50", "setting": "MCF-7; [2]", "value": 48, "unit": "nM"},
      {"measurement": "IC50", "setting": "FMS kinase", "value": 2.5, "unit": "nM"}
    ]},
    {"molecule": "CC(C)N1CCOc2c(F)cc(-c3nc(Nc4cc(F)c(N5CCNCC5)cc4F)ncc3F)cc21", "note": "[Compound 31, N-(2,5-difluoro-4-(piperazin-1-yl)phenyl)-5-fluoro-4-(8-fluoro-4-isopropyl-3,4-dihydro-2H-benzo[b][1,4]oxazin-6-yl)pyrimidin-2-amine]", "values": [
      {"measurement": "IC50", "setting": "MCF-7; [2]", "value": 193, "unit": "nM"},
      {"measurement": "IC50", "setting": "FMS kinase", "value": 49, "unit": "nM"}
    ]},
    {"molecule": "CC(C)N1CCOc2c(F)cc(-c3nc(Nc4ccc5c(c4)CC(N(C)C)C5)ncc3F)cc21", "note": "(stereo not shown) [Compound 37, N^5-(5-fluoro-4-(8-fluoro-4-isopropyl-3,4-dihydro-2H-benzo[b][1,4]oxazin-6-yl)pyrimidin-2-yl)-N^2,N^2-dimethyl-2,3-dihydro-1H-indene-2,5-diamine]", "values": [
      {"measurement": "IC50", "setting": "MCF-7; [2]", "value": "< 14", "unit": "nM"}
    ]},
    {"molecule": "CC(C)N1CCOc2c(F)cc(-c3nc(Nc4ccn(C5=CCNCC5)c(=O)c4)ncc3F)cc21", "note": "[Compound 39, 4-((5-fluoro-4-(8-fluoro-4-isopropyl-3,4-dihydro-2H-benzo[b][1,4]oxazin-6-yl)pyrimidin-2-yl)amino)-1′,2′,3′,6′-tetrahydro-2H-[1,4′-bipyridin]-2-one]", "values": [
      {"measurement": "IC50", "setting": "MCF-7; [1]", "value": 45, "unit": "nM"},
      {"measurement": "IC50", "setting": "FMS kinase", "value": 33, "unit": "nM"}
    ]},
    {"molecule": "CC(C)N1CCOc2c(F)cc(-c3nc(Nc4ccc(N5CCC(N(C)C)CC5)c(C(F)(F)F)c4)ncc3F)cc21", "note": "[Compound 178, N-(4-(4-(dimethylamino)piperidin-1-yl)-3-(trifluoromethyl)phenyl)-5-fluoro-4-(8-fluoro-4-isopropyl-3,4-dihydro-2H-benzo[b][1,4]oxazin-6-yl)pyrimidin-2-amine]", "values": [
      {"measurement": "IC50", "setting": "MCF-7; [1]", "value": 210, "unit": "nM"},
      {"measurement": "IC50", "setting": "FMS kinase", "value": 5, "unit": "nM"}
    ]}
  ]
}
